# Data taken from patent US8802664B2 (Bioproject, priority 2010, dated 2014).
# Biological target: T1, human H4 receptor (Homo sapiens, UniProt Q9H3N8)
# T1 construct: expressed in transfected cells
# Assay: [3H]Histamine binding on membranes of CHO cells stably expressing human H4 receptor
# How it was run: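 Nonspecific signal was taken as that remaining with 10 μM JNJ 7777120 present. Assays contained 20 μg CHO-derived hH4 membrane protein in Tris/HCl–EDTA buffer (pH 7.4) and were terminated on polyethyleneimine-soaked filters, with bound tritium quantified by scintillation.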
row,Ki or IC50 activity class,Compound
1,< 30 nM,"CN1CCC(OC(c2cccc(N3CCC(F)C3)c2)c2nc3ccccc3s2)CC1 (centres unmarked) [Example 430, 2-[[3-(3-fluoropyrrolidin-1-yl)phenyl](1-methylpiperidin-4-yloxy)methyl]benzothiazole]"
2,< 30 nM,CN1CCC(OC(c2nc3ccccc3[nH]2)c2c(F)cccc2F)CC1 (centres unmarked) [Example 512]
3,< 1000 nM,"CN1CCC(OC(c2cccc(CCC3CCNCC3)c2)c2nc3ccccc3[nH]2)CC1 (centres unmarked) [Example 396, 2-{(1-methylpiperidin-4-yloxy)[3-(2-piperidin-4-yl-ethyl)phenyl]methyl}-1H-benzimidazole]"
4,< 30 nM,"CN1CCC(OC(c2cccc(C#CCNC(=N)N)c2)c2nc3ccccc3[nH]2)CC1 (centres unmarked) [Example 418, N-(3-{3-[(1H-benzimidazol-2-yl)(1-methylpiperidin-4-yloxy)methyl]phenyl}prop-2-ynyl)guanidine]"
5,< 1000 nM,"CCOCCn1c(C(OC2CCN(C)CC2)c2cccc(I)c2)nc2ccccc21 (centres unmarked) [Example 497, 1-(2-ethoxyethyl)-2-[(3-iodophenyl)(1-methylpiperidin-4-yloxy)methyl]-1H-benzimidazole]"
6,< 1000 nM,"CN1CCC(OC(c2cccc(OCC3CCCNC3)c2)c2nc3ccccc3s2)CC1 (centres unmarked) [Example 378, 2-{(1-methylpiperidin-4-yloxy)[3-(piperidin-3-ylmethoxy)phenyl]methyl}benzothiazole]"
7,< 30 nM,"Cc1cc(F)c(C(OC2CCN(C)CC2)c2nc3ccccc3[nH]2)c(F)c1 (single isomer, unassigned) [Example 559, 2-[(2,6-difluoro-4-methylphenyl)(1-methylpiperidin-4-yloxy)methyl]-1H-benzimidazole]"
8,< 300 nM,"CN1CCC(OC(c2cccc(OC3CCNCC3)c2)c2nc3ccccc3s2)CC1 (centres unmarked) [Example 415, 2-{(1-methylpiperidin-4-yloxy)[3-(piperidin-4-yloxy)phenyl]methyl}benzothiazole]"
9,< 30 nM,CN1CCC(OC(c2nc3ccccc3[nH]2)c2cc(O)ccc2F)CC1 (centres unmarked) [Example 487]
10,< 300 nM,"CN1CCC(OC(c2cccc(C=CCCCO)c2)c2nc3ccccc3[nH]2)CC1 (centres unmarked) [Example 389, 5-{3-[(1H-benzimidazol-2-yl)(1-methylpiperidin-4-yloxy)methyl]phenyl}pent-4-en-1-ol]"
11,< 300 nM,CN1CCC(OC(c2cccc(SCCCCCCN)c2)c2nc3ccccc3[nH]2)CC1 (centres unmarked) [Example 451]
12,< 30 nM,CCSc1ccc(F)c(C(OC2CCN(C)CC2)c2nc3ccccc3[nH]2)c1 (centres unmarked) [Example 514]
13,< 1000 nM,CN1CCC(OC(c2ccc(F)c(OC(F)(F)F)c2)c2nc3ccccc3[nH]2)CC1 (centres unmarked) [Example 518]
14,< 300 nM,"CN1CCC(OC(c2cccc(SCCCc3cnc[nH]3)c2)c2nc3ccccc3[nH]2)CC1 (centres unmarked) [Example 398, 2-[{3-[3-(3H-imidazol-4-yl)propylsulfanyl]phenyl}(1-methylpiperidin-4-yloxy)methyl]-1H-benzimidazole]"
15,< 300 nM,CN1CCC(OC(c2nc3ccccc3[nH]2)c2cccs2)CC1 (centres unmarked) [Example 546]
16,< 30 nM,CN1CCC(OC(c2cccc(OC3CCC(N)C3)c2)c2nc3ccccc3s2)CC1 (centres unmarked) [Example 453]
17,< 300 nM,CN1CCC(OC(c2nc3cccc(F)c3[nH]2)c2cc(OC(F)(F)F)ccc2F)CC1 (centres unmarked) [Example 529]
18,< 300 nM,"CN1CCC(OC(c2cccc(N3CCC(N)CC3)c2)c2nc3ccccc3s2)CC1 (centres unmarked) [Example 405, 1-{3-[benzothiazol-2-yl(1-methylpiperidin-4-yloxy)methyl]phenyl}piperidin-4-ylamine]"

# More lines, now with the values behind:
row,Compound,Ki or IC50 activity class
1,"CN1CCC(OC(c2cccc(SCCNC(=N)N)c2)c2nc3ccccc3s2)CC1 (centres unmarked) [Example 302, N-(2-{3-[benzothiazol-2-yl(1-methylpiperidin-4-yloxy)methyl]phenylsulfanyl}ethyl)guanidine]",< 30 nM
2,"CN1CCC(OC(c2ccc3c(c2)OCO3)c2nc3ccccc3[nH]2)CC1 (centres unmarked) [Example 297, 2-[benzo[1,3]dioxol-5-yl(1-methylpiperidin-4-yloxy)methyl]-1H-benzimidazole]",< 300 nM
3,"CN1CCC(OC(c2cccc(OCCCCN)c2)c2nc3ccccc3[nH]2)CC1 (centres unmarked) [Example 331, 4-{3-[(1H-benzimidazol-2-yl)(1-methylpiperidin-4-yloxy)methyl]phenoxy}butylamine]",< 300 nM
4,"CN1CCC(OC(c2cccc(OCc3cccc(F)c3F)c2)c2nc3ccccc3s2)CC1 (centres unmarked) [Example 161, 2-[[3-(2,3-difluorobenzyloxy)phenyl](1-methylpiperidin-4-yloxy)methyl]benzothiazole]",< 30 nM
5,"CN1CCC(OC(c2cccc(CCCCCNC(=N)N)c2)c2nc3ccccc3s2)CC1 (centres unmarked) [Example 365, N-(5-{3-[benzothiazol-2-yl(1-methylpiperidin-4-yloxy)methyl]phenyl}pentyl)guanidine]",< 300 nM
6,"CSc1cccc(C(NC2CCN(C)CC2)c2nc3ccccc3s2)c1 (centres unmarked) [Example 111, [benzothiazol-2-yl(3-methylsulfanylphenyl)methyl](1-methylpiperidin-4-yl)amine]",< 30 nM
7,"CN1CCC(OC(c2cccc(-c3cccc(F)c3)c2)c2nc3ccccc3[nH]2)CC1 (centres unmarked) [Example 109, 2-[(3′-fluoro-biphenyl-3-yl)(1-methylpiperidin-4-yloxy)methyl]-1H-benzimidazole]",< 300 nM
8,"CN1CCC(OC(c2cccc(C(=O)N(C)c3ccccc3)c2)c2nc3ccccc3s2)CC1 (centres unmarked) [Example 223, 3-[benzothiazol-2-yl(1-methylpiperidin-4-yloxy)methyl]-N-methyl-N-phenylbenzamide]",< 300 nM
9,CN1CCC(OC(c2cccc(-c3cccc(CO)c3)c2)c2nc3ccccc3s2)CC1 (centres unmarked) [Example 54],< 300 nM
10,"CN1CCC(OC(c2cccc(C#N)c2)c2nc3ccccc3[nH]2)CC1 (centres unmarked) [Example 172, 3-[(1H-benzimidazol-2-yl)(1-methylpiperidin-4-yloxy)methyl]benzonitrile]",< 300 nM
11,"CN1CCC(OC(c2cccc(C#CCCO)c2)c2nc3ccccc3s2)CC1 (centres unmarked) [Example 236, 4-{3-[benzothiazol-2-yl(1-methylpiperidin-4-yloxy)methyl]phenyl}but-3-yn-1-ol]",< 300 nM
12,"CN1CCC(OC(c2cccc(SCCO)c2)c2nc3ccccc3s2)CC1 (centres unmarked) [Example 158, 2-{3-[benzothiazol-2-yl(1-methylpiperidin-4-yloxy)methyl]phenylsulfanyl}ethanol]",< 30 nM
13,"CN1CCC(OC(c2cccc(C=CC(=O)OC(C)(C)C)c2)c2nc3ccccc3s2)CC1 (centres unmarked) [Example 205, 3-{3-[benzothiazol-2-yl(1-methylpiperidin-4-yloxy)methyl]phenyl}acrylic acid tert-butyl ester]",< 1000 nM
14,"CCCOc1cccc(C(NC2CCN(C)CC2)c2nc3ccccc3s2)c1 (single isomer, unassigned) [Example 57, [benzothiazol-2-yl(3-propoxyphenyl)methyl](1-methylpiperidin-4-yl)amine]",< 30 nM
15,"CN1CCC(OC(c2cccc(-c3cccnc3)c2)c2nc3ccccc3s2)CC1 (centres unmarked) [Example 63, 2-[(1-methylpiperidin-4-yloxy)(3-pyridin-3-ylphenyl)methyl]benzothiazole]",< 300 nM
16,"CN1CCC(OC(c2cccc(CCCCCNC(=N)NC(=O)OC(C)(C)C)c2)c2nc3ccccc3[nH]2)CC1 (centres unmarked) [Example 335, N-tert-butoxycarbonyl-N′-(-{3-[(1H-benzimidazol-2-yl)(1-methylpiperidin-4-yloxy)methyl]phenyl}pentyl)guanidine]",< 300 nM
17,"CN1CCC(NC(c2cc3ccccc3o2)c2nc3ccccc3s2)CC1 (centres unmarked) [Example 37, [(benzofuran-2-yl)(benzothiazol-2-yl)methyl](1-methylpiperidin-4-yl)amine]",< 1000 nM
18,"CN1CCC(OC(c2cccc(C#CCCCCNC(=N)N)c2)c2nc3ccccc3s2)CC1 (centres unmarked) [Example 342, N-(6-{3-[benzothiazol-2-yl(1-methylpiperidin-4-yloxy)methyl]phenyl}hex-5-ynyl)guanidine]",< 300 nM
19,"CN1CCC(OC(c2cccc(OC(F)(F)F)c2)c2nc3ccccc3[nH]2)CC1 (centres unmarked) [Example 280, 2-[(1-methylpiperidin-4-yloxy)(3-trifluoromethoxy-phenyl)methyl]-1H-benzimidazole]",< 300 nM
20,"CN1CCC(OC(c2cccc(SCc3ccco3)c2)c2nc3ccccc3[nH]2)CC1 (centres unmarked) [Example 173, 2-[[3-(furan-2-ylmethylsulfanyl)phenyl](1-methylpiperidin-4-yloxy)methyl]-1H-benzimidazole]",< 300 nM
21,"CN1CCC(OC(c2cccc(SC(C)(C)CCO)c2)c2nc3ccccc3s2)CC1 (centres unmarked) [Example 242, 3-{3-[benzothiazol-2-yl(1-methylpiperidin-4-yloxy)methyl]phenylsulfanyl}-3-methyl-butan-1-ol]",< 1000 nM
22,"CN1CCC(NC(c2cccc(OCCOc3ccccc3)c2)c2nc3ccccc3[nH]2)CC1 (centres unmarked) [Example 106, {(1H-benzimidazol-2-yl)[3-(2-phenoxyethoxy)phenyl]methyl}(1-methylpiperidin-4-yl)amine]",< 300 nM
23,"CN1CCC(OC(c2cccc(OCCCF)c2)c2nc3ccccc3s2)CC1 (centres unmarked) [Example 176, 2-[[3-(3-fluoropropoxy)phenyl](1-methylpiperidin-4-yloxy)methyl]benzothiazole]",< 30 nM
24,"CN1CCC(OC(c2cccc(OCCC(F)(F)F)c2)c2nc3ccccc3s2)CC1 (centres unmarked) [Example 178, 2-{(1-methylpiperidin-4-yloxy)[3-(3,3,3-trifluoro-propoxy)phenyl]methyl}benzothiazole]",< 300 nM
25,"CN1CCC(NC(c2cccc(F)c2)c2nc3ccccc3[nH]2)CC1 (centres unmarked) [Example 74, [(1H-benzimidazol-2-yl)(3-fluorophenyl)methyl](1-methylpiperidin-4-yl)amine]",< 300 nM
26,"COC(=O)CC1(CSc2cccc(C(OC3CCN(C)CC3)c3nc4ccccc4s3)c2)CC1 (centres unmarked) [Example 239, (1-{3-[benzothiazol-2-yl(1-methylpiperidin-4-yloxy)methyl]phenylsulfanylmethyl}-cyclopropyl)acetic acid methyl ester]",< 1000 nM
